Columns and labels:
[1] = system: acute leukemia cell line RS4; 11; assay: MTT proliferation assay, RS4;11 cells; format: cell-based; settings: Homo sapiens, 72 h after drug administration
From the text: (§1) Cell lines for test: acute leukemia cell line RS4; 11 and multiple myeloma cell line MM.1S
(§2) Test method: MTT (thiazole blue) method, which was also called MTT colorimetry assay, was a method used to detect cell survival and growth. The principle of the assay was that the succinate dehydrogenase in mitochondria of living cells could reduce the exogenous MTT to water-insoluble blue-purple crystal formazan and deposit it in the cells, while dead cells have no such function. Dimethyl sulfoxide (DMSO) could dissolve formazan in cells, and its light absorption value was measured at 550 nm wavelength by enzyme-linked immunoassay, which could indirectly reflect the number of living cells. Within a certain range of cell numbers, the amount of MTT crystal formation is proportional to the number of cells. This method has been widely used in the activity detection of some biologically active factors, large-scale anti-tumor drug screening, cytotoxicity test, and tumor radiosensitivity determination.
(§3) The concentration gradient of the compound was as follows: 0-25.6 pM-128 pM-640 pM-3.2 nm-16 nM-80 nM-400 nM-2 μM-10 μM; (n=3)
(§4) 72 h after drug administration, 20 μl per well of MTT working solution (5 mg/ml) was added, and incubated at 37° C. for 4 h, centrifuged in plate centrifuge at 1000 rpm/min for 5 min. 180 μl of medium was aspirated and 150 μl DMSO was added in RS4; 11 groups; 200 μl of medium was aspirated and 150 μl DMSO was added in MM.1S group; the mixture was shaken and mixed on microwell shaker, and the bottom of the plate was wiped, and the optical density (OD) was measured at 550 nm by microplate reader. The IC50 of the half inhibitory concentration was calculated by LOGIT method.

[2] = system: multiple myeloma cell line MM.1S; assay: MTT proliferation assay, MM.1S cells; format: cell-based; settings: Homo sapiens, MM1.S, 72 h after drug administration
From the text: as §1, §2, §3, §4

Row | SMILES | IC50 [1] | IC50 [2]
1 | Cc1sc2c(c1C)C(c1ccc(Cl)cc1)=N[C@@H](CC(=O)NCCCCNC(=O)COc1cccc3c1C(=O)N(C1CCC(=O)NC1=O)C3=O)c1nnc(C)n1-2 (some centres unmarked) [dBET1, reference compound] | ≥ 100 nM | ≥ 100 nM
2 | Cc1sc2c(c1C)C(c1ccc(Cl)cc1)=N[C@@H](CC(=O)NN1CCN(C(=O)CCNc3cccc4c3C(=O)N(C3CCC(=O)NC3=O)C4=O)CC1)c1nnc(C)n1-2 (some centres unmarked) [Example 5] | < 20 nM | < 20 nM
3 | Cc1sc2c(c1C)C(c1ccc(Cl)cc1)=N[C@@H](CC(=O)NN1CCN(C(=O)CNc3cccc4c3CN(C3CCC(=O)NC3=O)C4=O)CC1)c1nnc(C)n1-2 (some centres unmarked) [Example 11] | < 20 nM | < 20 nM
4 | Cc1sc2c(c1C)C(c1ccc(Cl)cc1)=N[C@@H](CC(=O)N1CCN(NC(=O)CNc3cccc4c3CN(C3CCC(=O)NC3=O)C4=O)CC1)c1nnc(C)n1-2 (some centres unmarked) [Example 26] | 20 to 100 nM | 20 to 100 nM
5 | Cc1sc2c(c1C)C(c1ccc(Cl)cc1)=N[C@@H](CC(=O)NN1CCN(C(=O)CNc3cccc4c3C(=O)N(C3CCC(=O)NC3=O)C4=O)CC1)c1nnc(C)n1-2 (some centres unmarked) [Example 4] | < 20 nM | < 20 nM
6 | Cc1sc2c(c1C)C(c1ccc(Cl)cc1)=N[C@@H](CC(=O)OC(C)(C)C)c1nnc(C)n1-2 [JQ1, tert-butyl(S)-2-(4-(4-chlorophenyl)-2,3,9-trimethyl-6H-thieno[3,2-f][1,2,4]triazolo[4,3-a][1,4]diazepine-6-yl)acetate, reference compound] | ≥ 100 nM | ≥ 100 nM
7 | Cc1sc2c(c1C)C(c1ccc(Cl)cc1)=N[C@@H](CC(=O)NN1CCN(C(=O)COc3cccc4c3C(=O)N(C3CCC(=O)NC3=O)C4=O)CC1)c1nnc(C)n1-2 (some centres unmarked) [Example 15] | < 20 nM | < 20 nM
8 | Cc1sc2c(c1C)C(c1ccc(Cl)cc1)=N[C@@H](CC(=O)NN1CCN(C(=O)CCOCCOCCOCCNc3cccc4c3C(=O)N(C3CCC(=O)NC3=O)C4=O)CC1)c1nnc(C)n1-2 (some centres unmarked) [Example 9] | < 20 nM | 20 to 100 nM
9 | Cc1sc2c(c1C)C(c1ccc(Cl)cc1)=N[C@@H](CC(=O)NN1CCN(C(=O)CCC(=O)Nc3cccc4c3CN(C3CCC(=O)NC3=O)C4=O)CC1)c1nnc(C)n1-2 (stereo partly drawn) [Example 1, 4-(4-(2-((S)-4-(4-chlorophenyl)-2,3,9-trimethyl-6H-thieno[3,2-f][1,2,4]triazolo[4,3-a][1,4]diaza-6-yl)acetamido)piperazin-1-yl)-N-(2-(2,6-dioxpiperazin-3-yl)-1-oxoisoindolin-4-yl)-4-oxobutanamide] | < 20 nM | < 20 nM
10 | Cc1sc2c(c1C)C(c1ccc(Cl)cc1)=N[C@@H](CC(=O)N1CCN(NC(=O)CNc3cccc4c3C(=O)N(C3CCC(=O)NC3=O)C4=O)CC1)c1nnc(C)n1-2 (some centres unmarked) [Example 19] | < 20 nM | < 20 nM
11 | Cc1sc2c(c1C)C(c1ccc(Cl)cc1)=N[C@@H](CC(=O)NN1CCN(C(=O)CCNc3cccc4c3CN(C3CCC(=O)NC3=O)C4=O)CC1)c1nnc(C)n1-2 (some centres unmarked) [Example 12] | < 20 nM | < 20 nM
12 | Cc1sc2c(c1C)C(c1ccc(Cl)cc1)=N[C@@H](CC(=O)N1CCN(NC(=O)CCNc3cccc4c3C(=O)N(C3CCC(=O)NC3=O)C4=O)CC1)c1nnc(C)n1-2 (some centres unmarked) [Example 20] | < 20 nM | < 20 nM
13 | Cc1sc2c(c1C)C(c1ccc(Cl)cc1)=N[C@@H](CC(=O)N1CCN(NC(=O)CCC(=O)Nc3cccc4c3CN(C3CCC(=O)NC3=O)C4=O)CC1)c1nnc(C)n1-2 (some centres unmarked) [Example 16] | < 20 nM | < 20 nM
14 | Cc1sc2c(c1C)C(c1ccc(Cl)cc1)=N[C@@H](CC(=O)NNC(=O)CCC(=O)Nc1cccc3c1CN(C1CCC(=O)NC1=O)C3=O)c1nnc(C)n1-2 (some centres unmarked) [Example 31] | 20 to 100 nM | 20 to 100 nM
15 | Cc1sc2c(c1C)C(c1ccc(Cl)cc1)=N[C@@H](CC(=O)Nc1ccc(OCCOCCOCCOCCNc3cccc4c3C(=O)N(C3CCC(=O)NC3=O)C4=O)cc1)c1nnc(C)n1-2 (some centres unmarked) [ARV-825, reference compound] | 20 to 100 nM | 20 to 100 nM
16 | Cc1sc2c(c1C)C(c1ccc(Cl)cc1)=N[C@@H](CC(=O)NN1CCN(C(=O)CCOCCOCCNc3cccc4c3C(=O)N(C3CCC(=O)NC3=O)C4=O)CC1)c1nnc(C)n1-2 (some centres unmarked) [Example 8] | 20 to 100 nM | < 20 nM
